Measured values reported in publication PMC11996864, “A small-molecule inhibitor of BCL10-MALT1 interaction abrogates progression of diffuse large B cell lymphoma” (The Journal of Clinical Investigation, 2025).
Where “and” joins values, the source holds several entries; their conditions need not be identical. Equal values may be shown once. Read-outs that look alike come from different tables or passages of the source.

Legend:
[1] = test system: IKKα/β phosphorylation in Jurkat T cells; assay: IKKα/β phosphorylation after CD3/CD28 stimulation (MALT1 scaffolding activity); assay type: cell-based, human; conditions: for pIKK (normalized): Jurkat, 1 μM; for IKK phosphorylation: result in words
Procedure: (§1) Western blot analysis of RelB and N4BP1 cleavage was used to test the effect of small molecules on MALT1 protease activity. To this end, 3 million Jurkat T cells were pretreated with compounds for 24 hours in serum-free media, and then 5 μM MG-132 was added for 1 hour before stimulation with CD3/CD28 (Stemcell Technologies, catalog 10971), and lysed in RIPA buffer (Millipore, catalog 20-188) with protease and phosphatase inhibitor cocktail (Pierce, catalog 78446). IKKα/β phosphorylation and IκBα phosphorylation were used as measures of MALT1 scaffolding activity, while ERK1/2 phosphorylation was used as a control. Two million Jurkat T cells were treated with 1 μM M1i-124, 1 μM M1i-124d1, or DMSO in serum-free media for 16 hours, stimulated with CD3/CD28 for 0, 5, 10, or 20 minutes, and then immediately lysed in RIPA buffer with protease and phosphatase inhibitors. For experiments evaluating RelB cleavage and phosphorylation of IκBα in TMD8 cells, cells were treated with compounds for 24 hours in media containing 5% FBS. For RelB Western blot analysis, 5 μM MG-132 (Cell Signaling Technology, catalog 2194s) was added 4 hours before lysis in RIPA lysis buffer with protease/phosphatase inhibitors.

[2] = test system: RelB cleavage in TMD8 cells; assay: Constitutive RelB cleavage, Western blot; assay type: cell-based, human; conditions: result in words
Procedure: as §1

TMD8 cells = assay: IL6 and IL10 mRNA, qRT-PCR; assay type: cell-based, human; conditions: TMD8, 1 μM; for IL6 and IL10 mRNA levels: 24 hours, result in words
Procedure: TMD8 cells were treated with small molecule inhibitors for 24 with cultures conditions described above except that FBS was 5%. OCI-Ly3 were treated with inhibitors in serum free media for 24 hours. Total RNA extraction from cell lines was performed using RNeasy Plus Mini Kit (Qiagen, Cat# 74136). […]
Kit. RNA was transcribed into cDNA using High-Capacity cDNA Reverse Transcription Kit (Applied Biosystems, Cat# 4368814) according to manufacturer’s instructions. RT-PCR was performed using TaqMan Universal PCR Master Mix (Applied Biosystems, Cat# 4304437) and run on a StepOnePlus Real-Time PCR machine (Applied Biosystems). The following probes from ThermoFisher Scientific were used for qRT-PCR: IL2 TaqMan probe Hs00174114, IL6 TaqMan

[3] = test system: IκB phosphorylation in TMD8 cells; assay: Constitutive IκB phosphorylation, Western blot; assay type: cell-based, human; conditions: for IκB phosphorylation in TMD8 cells: result in words
Procedure: as §1

[4] = test system: IL-2 secretion from primary mouse splenocytes; assay: Secreted IL-2 ELISA, stimulated primary splenocytes; assay type: cell-based; conditions: Suppl Fig. 4B; for IL-2 protein level (% of control) / activity at 5 µM: 5 uM; for activity at 1 µM / activity at 5 µM: Mus musculus, Splenocyte, read-out: IL-2 protein level (% of control)
[5] = test system: BCL10 and MALT1 mRNA in TMD8 cells; assay: BCL10 and MALT1 mRNA expression, qRT-PCR; assay type: cell-based, human; conditions: TMD8, 1 μM
CYP2C9 = molecular target: T1, CYP2C9 (Homo sapiens, UniProt P11712); assay: Reversible CYP inhibition in human liver microsomes; assay type: in vitro ADME; conditions: read-out: Direct inhibition (IC50) CYP2C9
T1 construct: from tissue; host or cells: pooled, mixed-gender human liver microsomes
T1 sequence (P11712 whole entry): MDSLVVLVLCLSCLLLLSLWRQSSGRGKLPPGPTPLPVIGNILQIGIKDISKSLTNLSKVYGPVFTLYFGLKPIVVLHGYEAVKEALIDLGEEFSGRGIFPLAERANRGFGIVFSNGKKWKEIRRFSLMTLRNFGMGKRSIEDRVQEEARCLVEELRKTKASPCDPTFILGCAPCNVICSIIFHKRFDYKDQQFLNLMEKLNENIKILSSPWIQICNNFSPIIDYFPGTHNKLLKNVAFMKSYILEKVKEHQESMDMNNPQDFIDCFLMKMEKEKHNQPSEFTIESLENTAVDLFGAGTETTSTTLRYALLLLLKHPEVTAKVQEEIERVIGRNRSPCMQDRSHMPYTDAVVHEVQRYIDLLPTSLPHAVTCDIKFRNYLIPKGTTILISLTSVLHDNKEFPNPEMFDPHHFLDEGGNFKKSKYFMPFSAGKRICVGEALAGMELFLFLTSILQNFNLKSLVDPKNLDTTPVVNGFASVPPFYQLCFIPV
Procedure: (§2) Pharmacokinetic and cytochrome P450 inhibition studies. Studies were performed with the assistance of Touchstone Biosciences (Plymouth Meeting, Pennsylvania). […]
(§3) For reversible CYP […]
(§4) inhibition studies, different concentrations of M1i-124 were added to 0.2 mg/ml pooled, mixed-gender human liver microsomes (HLM). Each CYP450 isoform-specific probe substrate (CYP1A2, CYP2C9, CYP2C19, CYP2D6, and CYP3A4) was incubated individually with HLM and M1i-124 or corresponding positive control inhibitor (Phenacetin, Tolbutamaide, S-Mephenytoin, Dextromethorphan, Midazolam, and Testosterone). Samples were analyzed for metabolites of the probe substrates by LC-MS/MS at each of the test compound concentrations. A decrease in the formation of the metabolites compared to vehicle control was used to calculate the […]

CYP2C19 = molecular target: T2, CYP2C19 (Homo sapiens, UniProt P33261); assay: as above; assay type: in vitro ADME; conditions: read-out: Direct inhibition (IC50) CYP2C19
T2 construct: from tissue; host or cells: pooled, mixed-gender human liver microsomes
T2 sequence (P33261 whole entry): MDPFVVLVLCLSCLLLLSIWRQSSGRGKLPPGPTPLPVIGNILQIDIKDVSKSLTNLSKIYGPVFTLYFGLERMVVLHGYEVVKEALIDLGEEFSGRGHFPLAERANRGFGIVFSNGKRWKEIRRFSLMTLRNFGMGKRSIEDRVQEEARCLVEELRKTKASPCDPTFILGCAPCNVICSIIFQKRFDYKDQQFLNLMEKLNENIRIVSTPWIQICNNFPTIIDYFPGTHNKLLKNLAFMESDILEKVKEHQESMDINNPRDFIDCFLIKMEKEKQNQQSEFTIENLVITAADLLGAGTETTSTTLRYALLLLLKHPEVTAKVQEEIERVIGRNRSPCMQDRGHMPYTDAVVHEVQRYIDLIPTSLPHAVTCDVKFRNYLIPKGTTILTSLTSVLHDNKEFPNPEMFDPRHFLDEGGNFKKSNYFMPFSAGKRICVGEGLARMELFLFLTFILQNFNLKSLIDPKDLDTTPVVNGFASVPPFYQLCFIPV
Procedure: as §2, §3, §4

CYP2D6 = molecular target: T3, CYP2D6 (Homo sapiens, UniProt P10635); assay: as above; assay type: in vitro ADME; conditions: read-out: Direct inhibition (IC50) CYP2D6
T3 construct: from tissue; host or cells: pooled, mixed-gender human liver microsomes
T3 sequence (P10635 whole entry): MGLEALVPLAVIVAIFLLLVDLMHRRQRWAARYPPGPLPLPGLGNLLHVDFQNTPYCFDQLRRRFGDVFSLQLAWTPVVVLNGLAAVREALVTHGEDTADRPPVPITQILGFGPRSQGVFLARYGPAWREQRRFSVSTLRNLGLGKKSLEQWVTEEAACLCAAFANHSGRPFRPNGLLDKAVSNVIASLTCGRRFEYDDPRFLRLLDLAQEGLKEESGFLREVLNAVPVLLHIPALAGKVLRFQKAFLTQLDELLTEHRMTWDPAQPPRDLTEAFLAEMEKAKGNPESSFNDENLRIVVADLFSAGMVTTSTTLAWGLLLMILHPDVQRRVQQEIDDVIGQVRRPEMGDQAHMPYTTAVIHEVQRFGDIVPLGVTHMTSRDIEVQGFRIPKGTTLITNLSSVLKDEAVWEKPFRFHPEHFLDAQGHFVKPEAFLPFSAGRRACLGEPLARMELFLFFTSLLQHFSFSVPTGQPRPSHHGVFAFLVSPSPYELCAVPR
Procedure: as §2, §3, §4

CYP1A2 = molecular target: T4, CYP1A2 (Homo sapiens, UniProt P05177); assay: as above; assay type: in vitro ADME; conditions: read-out: Direct inhibition (IC50) CYP1A2
T4 construct: from tissue; host or cells: pooled, mixed-gender human liver microsomes
T4 sequence (P05177 whole entry): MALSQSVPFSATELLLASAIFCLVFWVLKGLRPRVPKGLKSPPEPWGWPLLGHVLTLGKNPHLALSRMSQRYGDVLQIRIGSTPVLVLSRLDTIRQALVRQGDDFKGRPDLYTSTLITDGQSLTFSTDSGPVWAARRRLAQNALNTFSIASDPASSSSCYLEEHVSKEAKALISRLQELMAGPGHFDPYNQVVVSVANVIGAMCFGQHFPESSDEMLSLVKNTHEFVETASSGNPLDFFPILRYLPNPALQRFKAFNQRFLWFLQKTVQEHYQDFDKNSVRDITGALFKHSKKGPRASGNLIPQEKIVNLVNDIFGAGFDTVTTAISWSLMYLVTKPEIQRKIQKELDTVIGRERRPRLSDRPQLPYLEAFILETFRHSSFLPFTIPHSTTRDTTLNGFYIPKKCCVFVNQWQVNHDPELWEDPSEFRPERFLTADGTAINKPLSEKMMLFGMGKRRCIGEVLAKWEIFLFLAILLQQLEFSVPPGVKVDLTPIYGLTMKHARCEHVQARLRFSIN
Procedure: as §2, §3, §4

CYP3A4T = molecular target: T5, CYP3A4T (Homo sapiens, UniProt P08684); assay: as above; assay type: in vitro ADME; conditions: read-out: Direct inhibition (IC50) CYP3A4T
T5 construct: from tissue; host or cells: pooled, mixed-gender human liver microsomes
T5 sequence (P08684 whole entry): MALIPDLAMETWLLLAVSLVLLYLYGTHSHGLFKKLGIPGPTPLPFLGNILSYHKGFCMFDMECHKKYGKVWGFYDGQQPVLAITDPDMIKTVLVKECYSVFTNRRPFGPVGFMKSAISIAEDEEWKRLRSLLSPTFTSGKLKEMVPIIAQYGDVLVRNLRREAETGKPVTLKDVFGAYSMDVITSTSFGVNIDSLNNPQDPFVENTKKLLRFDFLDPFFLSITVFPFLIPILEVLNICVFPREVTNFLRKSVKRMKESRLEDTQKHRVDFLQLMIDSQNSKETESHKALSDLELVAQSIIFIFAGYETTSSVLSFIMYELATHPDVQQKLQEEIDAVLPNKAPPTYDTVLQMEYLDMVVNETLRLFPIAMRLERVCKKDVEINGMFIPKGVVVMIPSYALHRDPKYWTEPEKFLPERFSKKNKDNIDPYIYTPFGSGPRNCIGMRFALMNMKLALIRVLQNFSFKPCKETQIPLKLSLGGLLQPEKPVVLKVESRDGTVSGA
Procedure: as §2, §3, §4

CYP3A4M = molecular target: T6, CYP3A4M (Homo sapiens, UniProt P08684); assay: as above; assay type: in vitro ADME; conditions: read-out: Direct inhibition (IC50) CYP3A4M
T6 construct: from tissue; host or cells: pooled, mixed-gender human liver microsomes
T6 sequence (P08684 whole entry): as above
Procedure: as §2, §3, §4

BJAB cells = assay: Apoptosis, annexin staining flow cytometry; assay type: cell-based, human

SMILES: COc1ccc(CNS(=O)(=O)c2ccc(Cc3ccc(S(=O)(=O)NCc4ccc(OC)cc4)cc3)cc2)cc1 [M1i-124d1]
- pIKK (normalized) ([1]; CD3/CD28 10 min): 0.3485 and 0.3518 and 0.2777 and 0.3582 and 0.2291
- IKK phosphorylation [1]: reduced IKK phosphorylation
- RelB cleavage in TMD8 cells [2]: markedly reduced cleavage of RelB
- IL-10 mRNA (normalized) (TMD8 cells): 0.31 and 0.33 and 0.37 and 0.53 and 0.28 and 0.52
- IL6 and IL10 mRNA levels (TMD8 cells): significantly decrease IL6 and IL10 mRNA levels
- pIkB (normalized) ([3]; TMD8, 1 μM, 24 hours): 0.264 and 0.345
- IκB phosphorylation in TMD8 cells [3]: marked reduction in IκB phosphorylation

SMILES: CN1CCCC(CN2c3ccccc3Sc3ccccc32)C1 (stereo not drawn) [Mepazine, mepazine, reference compound]
- IL-2 protein level (% of control) ([4]; CD3/CD28 treated): 22.2086 % of control and 29.3738 % of control
- activity at 1 µM ([4]; CD3/CD28 treated): 82.7%
- activity at 5 µM ([4]; CD3/CD28 treated): 15.6%
- activity at 1 µM ([4]; PMA/Iono treated): 83.3%
- activity at 5 µM ([4]; PMA/Iono treated): 22.3%
- IL-2 protein level (% of control) ([4]; PMA/Iono treated): 17.095 % of control and 28.7342 % of control

SMILES: O=S(=O)(NCc1ccc2c(c1)OCO2)c1ccc(Cc2ccc(S(=O)(=O)NCc3ccc4c(c3)OCO4)cc2)cc1 [M1i-124]
- pIKK (normalized) ([1]; CD3/CD28 0 min): 0.4315 and 0.5112 and 0.3213 and 0.2741 and 0.4341
- IKK phosphorylation [1]: reduced IKK phosphorylation
- BCL10 mRNA (normalized) ([5]; 48 hrs): 1.102 and 1.661 and 1.831
- BCL10 mRNA (normalized) ([5]; 72 hrs): 2.063 and 2.239 and 2.314
- MALT1 mRNA (normalized) ([5]; 72 hrs): 1.674 and 1.428 and 1.962
- RelB cleavage in TMD8 cells [2]: markedly reduced cleavage of RelB
- IL-10 mRNA (normalized) (TMD8 cells): 0.19 and 0.23 and 0.25 and 0.2 and 0.18 and 0.32
- IL6 and IL10 mRNA levels (TMD8 cells): significantly decrease IL6 and IL10 mRNA levels
- IκB phosphorylation in TMD8 cells [3]: marked reduction in IκB phosphorylation
- IC50 (CYP2C9): 21 µM
- IC50 (CYP2C19): 28 µM
- IC50 (CYP2D6): 13 µM
- IC50 (CYP1A2): > 100 µM
- IC50 (CYP3A4T): 40 µM
- IC50 (CYP3A4M): 28 µM
- Annexin (% positivity) (BJAB cells; BJAB, individual replicates): 34.8% and 31.55% and 33.15%
- apoptosis of BJAB cells (BJAB cells; result in words): either no or minimal apoptotic response
